This is an account of results in US20100022637A1, “IDENTIFICATION OF ANTI-CANCER COMPOUNDS AND COMPOUNDS FOR TREATING HUNTINGTON'S DISEASE AND METHODS OF TREATMENT THEREOF” (THE TRUSTEES OF COLUMBIA UNIVERSITY IN THE CITY OF NEW YORK, priority 2005, published 2010).

In brackets after ≈: the same amount, converted by molar mass. Like-named read-outs stand apart in the source and are kept apart here.

The test system of one data set is N548 mutant cells. Kind of data set: cells. The conditions noted are these: for EC50 / maximal fold induction: Rattus norvegicus; for Activity: nonselective hits, scale not defined; for selectivity profile of cell death rescue in panel of htt expressing cell lines: N63, N548, FL htt cell lines, in words; for maximal fold induction: read-out: N548 Mut: Max, maximum rescue expressed as fold over DMSO treated N548 mutant cells. On the procedure:
(§1) Embryonic rat striatal neurons were conditionally immortalized by stably transfecting a temperature-sensitive SV40 large T-antigen (T-ag) to generate the ST14A cell line. ST14A cells proliferate at the permissive temperature (33° C.), but stop dividing at 39° C., as a result of T-ag degradation. […] As htt protein context modulates polyQ toxicity, testing these different length htt proteins could provide insight into the basis for context dependence.
(§2) ST14A Assay System: Calcein acetoxylmethyl ester (AM) (Molecular Probes, Eugene, Oreg.) is a non-fluorescent, membrane-permeable compound that is cleaved by intracellular esterases, which subsequently forms the anionic, fluorescent compound, calcein, that cannot permeate the cell membrane. […] A fluorescence viability assay, that is based on conversion of a non-fluorescent substrate (calcein AM) to a fluorescent product by nonspecific esterases in live cells, was employed to monitor cell death in wild type (wt) ST14A-Htt and mut ST14A-Htt cell lines. Cell death is indicated by a decrease in fluorescence. […] 3 μl of each compound was transferred from daughter plates to triplicate assay plates for a final assay concentration of 4 μg/ml in 0.1% DMSO (10 μM for NINDS compounds). Cells were incubated at 33° C. for 3 h to enhance attachment and then shifted to 39° C. (with 5% CO2). After 3 days (d), cells were washed 10 times with phosphate buffered saline (PBS) leaving 20 μl residual PBS per well, and 20 μl of 2 μg/ml calcein AM (Molecular probes) in PBS was added per well. […] The fluorescence intensity in each well was normalized to the median of each plate. The median normalized fluorescence of each triplicate assay wells was determined. A well with more than 50% increase in intensity above the median signal intensity was considered a “hit.”
(§3) Assay Development: An assay was developed for detecting mutant htt-induced cell death in ST14A cells in a 384-well plate format. A calcein AM-based method was used to detect cell viability, and optimized the cell number and time course for this method. […] A cell number titration was performed to determine the cell density at which calcein fluorescence was not saturated and the coefficient of variation (CV) was low (FIG. 14A-B). A low CV is critical for a high-throughput assay as it decreases noise and enhances sensitivity. […] Next, the kinetics of the fluorescence signal were determined.
(§4) Next, the serum concentrations that induce cell death in these cells were determined. Cells were seeded in decreasing serum (IFS) concentrations (5 to 0%), and cell viability was assayed after 3 d using the calcein AM assay (FIG. 14E).
(§5) A Z′ value of greater than 0 is required for a usable assay, with a maximum value of 1.0 for an ideal assay. For the assay, calcein fluorescence was used on the day of seeding to represent 100% rescue. The difference in calcein fluorescence signal on the day of seeding and after different number of days under serum deprivation was determined and used to calculate the Z′ factor. […] About 47,000 compounds were assayed in a 384-well plate format in triplicate to enhance the reliability of the primary screen.

The nature of the next data set: in vitro. The conditions noted are these: rat. The procedure:
as §1, §2, §3, §4, §5

The test system of data set [1] is PC12 expressing Q103 exon 1 htt. The data set is described as follows: PC12 HD model, Alamar Blue viability. The following applies: for EC50: Rattus norvegicus, PC-12, unit inferred; for PC12 rescue: percent increase in viability in compound treated cells above DMSO treated: — = no activity in the assay (footnote n.a.). Format: cell-based. On the procedure:
For enhanced stability the repeat portion consists of alternating CAG/CAA repeats. […] Mutant (mut) htt was induced by the ecdysone receptor agonist, tebufenozide.
For the PC12 assay, 7500 cells/well were plated in 384-well plates in 57 μl of PC12 medium with tebufenozide (1 μM). Compounds (3 μl) from daughter plates were added to the cells and incubated at 37° C. After 48 h, 20 μl of 40% Alamar Blue (Biosource, CA) in PC12 media was added per well and cells incubated for 12 h at 37° C. […] Fluorescence intensity was determined using a Packard Fusion plate reader with an excitation filter centered on 535 nm and an emission filter centered on 590 nm. Average percentage inhibition at each concentration was calculated.

In data set [2] the test system is ASH neurons in C. elegans HD model (pqe-1; Htn-Q150). The data set is described as follows: Neuronal survival assay, worm HD model. Format: in vivo. The conditions noted are these: 2 d after treatment, revertin-2 0.8 mg/ml, revertin-1a 1 mg/ml, p<0.02. On the procedure: One hundred synchronized L1 worms (pqe-1; Htn-Q150) (Faber P., et al, Proc Natl Acad Sci 99: 17131-6; Wood W., Cold Spring Harbor Laboratory, NY) were added to 5 wells (20 worms/well). Each well contained 50 μl food suspension (6.6 O.D.) pre-mixed with compound or DMSO in a 96-well plate. Worms were incubated for 2 d at 15° C., washed in S-media, immobilized with 5 mM sodium azide on a microscopic glass slide and GFP fluorescence was examined using an Axoplan2 fluorescence microscope (ex 485/em 535 nm). Live (GFP positive) Anterior Sensory Horn (ASH) neurons were counted in at least 50 worms (100 neurons). Data were subjected to a two-tailed Student t-test.
Worm HD Model. A C. elegans model of HD was optimized for testing compounds. In this model, larval ASH neurons that express mutant htt in a poly Q enhancer-1 mutant background, die over 2-3 days after hatching (Faber P, et al, Proc Natl Acad Sci USA 2002, 99: 17131-6). Neuronal death was monitored by loss of GFP expression in ASH neurons. Since the effective concentration of compounds in worms can vary widely from those in cell culture, concentrations to test in worms were based on an assay (FIG. 19). The effective concentrations in worms for all compounds were determined and tested for rescue of neuronal cell death. […] Thus, the ST14A cell culture model can be used to identify compounds that are active in in vivo models of HD. […] Compounds in this series were active in both the worm and PC12 HD models (FIG. 18B-C). The revertin-1 series has certain features making it an attractive candidate for lead development including different analogues that are active, a low molecular weight (˜400) making it likely that it can cross the blood brain barrier; furthermore, it is synthetically tractable.

The subject of a further data set is parental ST14A cells. The data set is described as follows: Cell death rescue in parental cells (selectivity counter screen). Format: cell-based, rat. The conditions noted are these: in words. On the procedure:
Cell death is indicated by a decrease in fluorescence. […] (with 5% CO2).
Identification of selective inhibitors of mutant-htt toxicity: As a first step towards probing mechanisms of action of these compounds, it was tested whether compounds selectively targeted pathways that are perturbed by mutant htt or if they suppressed a general death mechanism. Caspase activation was tested to see if it contributed to cell death in this model, since caspase-dependent pathways have been broadly implicated in cell death and in HD (Thornberry, N. and Y. Lazebnik, Science 1998, 281:1312-6; Sanchez Mejia, R and R. Friedlander Neuroscientist 2001, 7: 480-9; Hickey M. and M. Chesselet, Prog Neuropsychopharmacol Biol Psych 2003, 27: 255-65). Caspase activation was monitored via measuring the cleavage of specific fluorogenic caspase substrates. […] The decreased caspase activation in WT N548 cells was consistent with relative protection of these cells from cell death. […] Thus, the ability of a compound to rescue cell death in ST14A cells could be used as a selectivity filter to differentiate compounds that were selective for pathways selective for mutant htt induced cell death. The selectivity of rescue by a compound was determined by assessing rescue of cell death in parental ST14A cells. […]
On the technique in general: A counterscreen serves to expose hits that act by an unwanted route or on another target.

The mark [3] stands for this setting: read-out: EC50 based on activity in N548 mutant cells.

For `CC[n+]1c(-c2ccccc2)c2cc(N)ccc2c2ccc(N)cc21` [Homidium Bromide, reference compound], in the data set on N548 mutant cells (ST14A, 72 h), the EC50 is 10 µM. The same compound yielded an Activity with N548 mutant cells of 1.5. The same compound yielded a CC50 in the data set “in vitro” of 15 µM.
As to `COc1c2c(cc3c1C(CC(=O)/C=C/c1ccco1)[N+](C)(C)CC3)OCO2` (centres unmarked) [revertin-2], the EC50 in data set [1] was 13 µg/mL; in the data set on N548 mutant cells (setting [3]), 3 µg/mL. For the same compound, in data set [1], the “PC12 rescue: percent increase in viability in compound treated cells above DMSO treated” value (from here on “PC12 rescue: percent increase”) was 34%. In the data set on N548 mutant cells, the “selectivity profile of cell death rescue in panel of htt expressing cell lines” value (from here on “selectivity profile of cell death rescue”) is reported as “protective in all three mutant htt versions”. Besides, in the data set with N548 mutant cells (72 h), the maximal fold induction turned out to be 4. Also, the “ASH neuronal cell survival” value in data set [2] is reported as “enhance ASH neuronal cell survival”; in data set [2] (listed as rev-2), “rescued ASH neuronal cell death”.
In the case of `O=C(O)c1ccccc1Nc1cccc(C(F)(F)F)c1` [Flufenamic Acid, reference compound], in the data set on N548 mutant cells (ST14A, 72 h), the response was half-maximal at 5 µM (EC50). In the data set on N548 mutant cells, this compound showed an Activity of 1.5. In “in vitro” (ST14A striatal cells expressing N548 mutant human htt), this compound registered a CC50 at 3 days of 40 µM.
As to `CCCCCCCCCC(=O)Oc1cc(-c2ccccc2)nn1-c1cccc(F)c1` [revertin-1c], the EC50 amounted to 40 µg/mL (≈ 97.9 µM) in data set [1] and 4 µg/mL with N548 mutant cells (setting [3]). Besides, in data set [1], the “PC12 rescue: percent increase” value was 23%. For the same compound, the “selectivity profile of cell death rescue” value was “selectively rescued cell death in all mutant htt-expressing cell lines” in the data set with N548 mutant cells and “selectively rescues cell death in three mutant htt expressing cell lines” in the data set on N548 mutant cells (listed as Rev-1c). In addition, in the data set with N548 mutant cells (72 h), the maximal fold induction was determined as 2.5. In addition, the “rescue of cell death in parental ST14A cells” value in the data set on parental ST14A cells is listed as “not in parental ST14A cells”.
Consider `CCCc1cc(OC(=O)c2ccccc2F)n(-c2cccc(F)c2)n1` [revertin-1a], for which, in data set [1], the EC50 was found to be 50 µg/mL (≈ 146 µM) and the “PC12 rescue: percent increase” value was 21%. For the same compound, the “selectivity profile of cell death rescue” value in the data set on N548 mutant cells is on record as “selectively rescued cell death in all mutant htt-expressing cell lines”. For the same compound, the maximal fold induction in the data set with N548 mutant cells (72 h) stood at 2.5. The EC50 in the data set on N548 mutant cells (setting [3]) is 4 µg/mL. The “ASH neuronal cell survival” value in data set [2] was “enhance ASH neuronal cell survival”.

By EC50 is commonly meant the midpoint of the concentration-response curve.
